For assay [1], the target named is T1, LH3/PLOD3 (Homo sapiens, UniProt O60568).
T1 construct: 6xHis-tag and TEV site; secreted from HEK293-F cells
T1 sequence (O60568 25-738): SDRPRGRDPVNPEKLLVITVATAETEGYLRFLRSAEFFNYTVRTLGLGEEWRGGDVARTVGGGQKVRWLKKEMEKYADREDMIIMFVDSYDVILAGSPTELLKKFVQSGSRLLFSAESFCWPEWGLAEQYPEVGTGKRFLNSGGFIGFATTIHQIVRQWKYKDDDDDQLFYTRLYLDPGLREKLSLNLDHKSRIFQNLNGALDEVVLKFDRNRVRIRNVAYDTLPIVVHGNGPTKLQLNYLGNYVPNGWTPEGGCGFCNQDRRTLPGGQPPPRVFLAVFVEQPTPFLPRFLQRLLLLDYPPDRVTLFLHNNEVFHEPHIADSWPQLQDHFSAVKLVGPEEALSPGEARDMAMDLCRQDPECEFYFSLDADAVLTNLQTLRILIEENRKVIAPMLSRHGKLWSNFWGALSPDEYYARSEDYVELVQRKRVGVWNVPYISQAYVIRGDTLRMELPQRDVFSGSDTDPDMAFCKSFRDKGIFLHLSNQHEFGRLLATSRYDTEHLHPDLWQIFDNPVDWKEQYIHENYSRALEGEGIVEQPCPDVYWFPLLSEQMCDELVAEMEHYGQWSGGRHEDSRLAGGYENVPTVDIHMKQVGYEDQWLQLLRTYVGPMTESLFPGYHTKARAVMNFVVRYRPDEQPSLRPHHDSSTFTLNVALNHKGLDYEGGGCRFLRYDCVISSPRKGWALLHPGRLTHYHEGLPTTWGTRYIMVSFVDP
The experiment in a line: differential scanning fluorimetry. The settings on record: 50 mM MnCl2, 5 mM ligand, 25 mM HEPES, 500 mM NaCl, pH 8. It counts as binding.

Assay [2] addresses T1, LH3/PLOD3. The experiment in a line: luminescence-based Glc-T competition assay. It counts as biochemical. The settings on record: read-out: UDP-Glc (IC50). An excerpt: luminescence-based Glc-T competition assay on LH3/PLOD3

Broadly, the IC50 is the concentration that gives 50% inhibition. For `O=C(O)[C@H]1O[C@H](OP(=O)(O)OP(=O)(O)OC[C@H]2O[C@@H](n3ccc(=O)[nH]c3=O)[C@H](O)[C@@H]2O)[C@H](O)[C@@H](O)[C@@H]1O` [UDP-GlcA], the thermal shift on LH3/PLOD3 [1] is 1–1.5 °C. The IC50 at LH3/PLOD3 [2] is greater than 10 mM. Regarding `O=c1ccn([C@@H]2O[C@H](COP(=O)(O)OP(=O)(O)O[C@H]3OC[C@@H](O)[C@H](O)[C@H]3O)[C@@H](O)[C@H]2O)c(=O)[nH]1` [UDP-Xyl], the IC50 at LH3/PLOD3 [2] was 3.17 ± 0.211 mM. As to `O=c1ccn([C@@H]2O[C@H](COP(=O)(O)OP(=O)(O)O)[C@@H](O)[C@H]2O)c(=O)[nH]1` [UDP], the thermal shift on LH3/PLOD3 [1] is 3–3.5 °C.
